The source of these data is patent US20220127297A1, “Novel Antibacterial 3"-Derivatives Of 4,6-Disubstituted 2,5-Dideoxystreptamine Aminoglycoside Antibiotics” (AGILeBiotics B.V., priority 2018, published 2022).

In brackets after ≈: the same amount, converted by molar mass.

In general, MIC50 refers to the lowest concentration that inhibits either 50% of growth or 50% of the strains tested, depending on the study. A high value points to weaker potency.

The subject of assay [1] is E. coli (AAC(6′)Ie-APH(2″)Ia). Put plainly: MIC 50, broth micro-dilution, E. coli expressing AAC(6′)Ie-APH(2″)Ia. In kind it is cell-based, Escherichia coli. The conditions noted are these: Escherichia coli, ATCC25922, ATCC25922 harboring plasmid encoding AAC(6′)Ie-APH(2″)Ia. How it is done:
(§1) Plasmid transformation. Approximately 500 ng of the pET-9b(+) (Cat. No. 69432-3, Merck), pAT21-1 (provided by Prof. Dr. Patrice Courvalin, M.D., Pasteur Institute, France; prepared according to Trieu-Cuot et. al, Mol. Gen. Genet. 198(2), 348 (1985)), pBluescript::AAC(6′)-Ie/APH(2″)-Ia (provided by Prof. Dr. Sergei Vakulenko, M.D., University of Notre Dame, Ind., USA; prepared according to S. B. Vakulenko et. al., J. Biol. Chem. 287 (52), 43262 (2012)), pBlue_lpp_aacC3_rrnC and pSET152 (Cat. No. PVT3395, Life Science Market; prepared according to Bierman et al., Gene 116 (1), 43 (1992)) plasmids, encoding APH(3′)-Ia (SEQ ID NO:2), APH(3′)-IIIa (SEQ ID NO:3), AAC(6′)Ie-APH(2″)-Ia (SEQ ID NO:4), AAC(3)-III (SEQ ID NO:1), and AAC(3)-IV (SEQ ID NO:5) respectively, were individually incubated in a vial of competent cells for 15 min on ice. The cells were subsequently heated to 42° C. for 90 s, and cooled on ice for 1 min. After addition of 900 μL LB, the cells were incubated for 1 h at 37° C. and 200 rpm. Cells were plated on LB-agar supplemented with 50 μg/mL KanaA and incubated for 18 h at 37° C. The next day, a single colony was inoculated in 5 mL LB supplemented with 50 μg/mL and grown for 18 h at 37° C. and 200 rpm. A 200 μL sample of each culture was diluted with 200 μL of 40% v/v glycerol in water, and stored at −80° C. The plasmid was purified from the remaining culture using the Plasmid Miniprep kit. Plasmid DNA was investigated by Eurofins Genomics (Germany) to confirm the identity of the aminoglycoside resistance genes.
(§2) 3.1 Against E. coli Strains
(§3) Tested reference compounds. Amikacin sulfate (Cat. No. 01693, Chem-Impex), Gentamicin sulfate (Cat. No. G4918, Sigma Aldrich).
(§4) Microbial strains. E. coli ATCC 25922, E. coli ATCC 25922/pET-9b(+), E. coli ATCC 25922/pAT21-1, E. coli ATCC 25922/pBluescript::AAC(6′)-Ie/APH(2″)-Ia, E. coli ATCC 25922/pBlue_lpp_aacC3_rrnC, E. coli ATCC 25922/pSET152.
(§5) Culture media and equipment. BBL™ Mueller Hinton Broth 2 (Lot. BCBW1143, Cat. No. 70192, Sigma); Kanamycin A (Cat. No. A1493, AppliChem); 96-well deep well plate, 1 mL (Cat. No. 0030506.200, Eppendorf); Plate lids (Cat. No. 0030131.525, Eppendorf); 96-well plate, F-bottom (Cat. No. 781602, Brand; Incubator, Infors Multitron Pro); Laminar flow (Heraeus KS12); UV/VIS meter (Eppendorf BioPhotometer Plus); Platereader (Tecan Sunrise).
(§6) Compound preparation. Compounds were prepared in MH2 media at a concentration of 5 mM and stored at 4° C. For testing, solutions of 128 μM were prepared in MH2. Out of these working solutions, 400 μL was transferred to wells in the first column of 96-well deep well plates. Each compound was transferred in triplicate. Plates were previously filled with 200 μL of MH2 media in all wells except for the wells in the first column. After compound and antibiotic addition, the compounds were serial two-fold diluted by transferring 200 μL from the first to the second column, then from the second to the third column and so on. Finally, 200 μL was removed from the last column.
(§7) Inoculum preparation. Microorganisms used were all revived from 20% glycerol (40% v/v glycerol in water was diluted with MH2) storage at −80° C. by inoculating them in 5 mL MH2. inoculums of E. coli containing a plasmid were selected for by adding 50 μg/mL KanaA. The Inoculums were grown to an optical density (measured by UV/Vis spectroscopy) of 0.6-0.8 at 600 nm. Out of these suspensions, actual inoculums were prepared by diluting them to an optical density (OD) of 0.1 in MH2 media. From these inoculums, 200 μL was transferred to each well, resulting in a final compound concentration range of 64 μM-31.3 nM. All plates were incubated at 900 rpm and 70% rH for 18 h at 37° C.
(§8) MIC determination. After 18 h of growth, 200 μL was transferred to a 96-well F-bottom plate. The optical density was determined by a plate reader at 600 nm, with 10 s shaking before reading. Triplicate measurements were averaged, and a growth curve was plotted in Microsoft Excel. […]

In another assay the test system is E. coli ATCC25922 strain. Put plainly: MIC 50, broth micro-dilution, wild-type Escherichia coli. In kind it is cell-based. The following applies: Escherichia coli, ATCC25922, 18 h, MH2, 18 h.
Description: as §2, §3, §4, §5, §6, §7
MIC determination. After 18 h of growth, 200 μL was transferred to a 96-well F-bottom plate. The optical density was determined by a plate reader at 600 nm, with 10 s shaking before reading. Triplicate measurements were averaged, and a growth curve was plotted in Microsoft Excel. The first column in which the growth reached half the value of maximum growth was determined as the MIC50 value for that particular compound.
MIC50. The MIC50 of a compound was assigned at which the bacterial growth reached half the value of maximum growth.
On the technique in general: In broth dilution the organism is exposed to a series of concentrations in liquid medium.

In another assay the test system is E. coli (APH(3′)Ia). Put plainly: MIC 50, broth micro-dilution, E. coli expressing APH(3′)Ia. In kind it is cell-based, Escherichia coli. The following applies: Escherichia coli, ATCC25922, ATCC25922 harboring plasmid encoding APH(3′)Ia. How it is done: as §1, §2, §3, §4, §5, §6, §7, §8
The next assay concerns E. coli (AAC(3)IV). Put plainly: MIC 50, broth micro-dilution, E. coli expressing AAC(3)IV. The conditions noted are these: Escherichia coli, ATCC25922, ATCC25922 harboring plasmid encoding AAC(3)IV. In kind it is cell-based, Escherichia coli. As to the method:
as §1, §2, §3, §4, §5, §6, §7, §8

The test system of a further assay is E. coli (AAC(3)III). Put plainly: MIC 50, broth micro-dilution, E. coli expressing AAC(3)III. In kind it is cell-based, Escherichia coli. The conditions noted are these: Escherichia coli, ATCC25922, ATCC25922 harboring plasmid encoding AAC(3)III.
Description: Cloning resistant enzymes. An Escherichia coli codon optimized gene encoding AAC(3)-III (GenBank acc.nr. X55652.1; SEQ ID NO:1), including a promoter and terminator sequence, was synthesized by Integrated DNA Technologies, Belgium. The synthesized gene and pBluescript II KS(+) plasmid were digested using the restriction enzymes SacI and SalI, and purified from a 1% TBE-agarose gel using the illustra Gel Band purification kit. The purified linear plasmid and T4 DNA ligase were used to ligate aac(3)-III under control of the constitutive lipoprotein Ipp promoter and ribosomal RNA rrnC terminator, resulting in pBlue_Ipp_aacC3_rrnC.
as §1, §2, §3, §4, §5, §6
Inoculum preparation. Microorganisms used were all revived from 20% glycerol (40% v/v glycerol in water was diluted with MH2) storage at −80° C. by inoculating them in 5 mL MH2. inoculums of E. coli containing a plasmid were selected for by adding 50 μg/mL KanaA.

In another assay the test system is E. coli (APH(3′)IIIa). Put plainly: MIC 50, broth micro-dilution, E. coli expressing APH(3′)IIIa. In kind it is cell-based, Escherichia coli. The following applies: Escherichia coli, ATCC25922, ATCC25922 harboring plasmid encoding APH(3′)IIIa. As to the method:
as §1, §2, §3, §4, §5, §6, §7, §8

As to `N=C(NC[C@H]1CCCNC1)NC1[C@@H](O)C(OC2[C@@H](F)[C@H](O[C@H]3OC(CN)[C@@H](O)CC3N)C(N)C[C@H]2NC(=O)[C@@H](O)CCN)O[C@H](CO)[C@H]1O` (stereo partly drawn) [ABX5044, Tobra-AHB-F-Gua (S) piperidin-3-yl methyl], the MIC50 in assay [1] was 0.5 µM (≈ 0.355 µg/mL); against E. coli ATCC25922 strain it was 0.5 µM (≈ 0.355 µg/mL); against E. coli (APH(3′)Ia) it was 0.5 to 1 µM (≈ 0.355 to 0.71 µg/mL); against E. coli (AAC(3)IV), 2 µM (≈ 1.42 µg/mL); against E. coli (AAC(3)III), 0.5 µM (≈ 0.355 µg/mL); in the assay on E. coli (APH(3′)IIIa) it was 0.5 µM (≈ 0.355 µg/mL).
